Results: article PMC12040169 (PLOS Biology, 2025)

Test: in vitro
Details: human, hela cells, % viability

Row | Structure (SMILES) | viability at 28.5 h, 10 µM
1 | O=C(Nc1nnc(C2=COCCO2)o1)c1cccc(F)c1 [CBK287408] | 85.3%
2 | COc1cc(C(=O)Nc2nnc(C3=COCCO3)o2)cc(OC)c1OC [CBK287410] | 97.6%
3 | O=C(Nc1nnc(C2=COCCO2)o1)c1ccco1 [CBK287412] | 95.5%
4 | Cc1ccc(C(=O)Nc2nnc(C3=COCCO3)o2)cc1C [CBK287413] | 104%
5 | O=C(Cc1cccc2ccccc12)Nc1nnc(C2=COCCO2)o1 [CBK287414] | 86.6%
6 | O=C(Nc1nnc(C2=COCCO2)o1)c1cc(Cl)cc(Cl)c1 [CBK287418] | 91.1%
7 | O=C(Nc1nnc(C2=COCCO2)o1)c1ccc(Cl)cc1Cl [CBK287419] | 78%
8 | O=C(Nc1nnc(-c2ccco2)o1)c1ccccc1 [CBK287420] | 96.3%
9 | COc1cccc(C(=O)Nc2nnc(-c3ccco3)o2)c1 [CBK287421] | 106%
10 | O=C(Nc1nnc(-c2ccco2)o1)c1cccc(C(F)(F)F)c1 [CBK287422] | 88.6%
11 | O=C(Nc1nnc(-c2ccco2)o1)C(c1ccccc1)c1ccccc1 [CBK287424] | 91.9%
12 | CC(=O)Nc1nnc(-c2ccc3c(c2)CCCC3)o1 [CBK287426] | 88%
13 | N#Cc1ccc(C(=O)Nc2nnc(-c3ccccn3)o2)cc1 [CBK287428] | 100%
14 | Cc1cccc(C(=O)Nc2nnc(-c3ccncc3)o2)c1 [CBK287430] | 91.5%
15 | COc1cc2ccccc2cc1C(=O)Nc1nnc(-c2ccncc2)o1 [CBK287432] | 93.1%
16 | CCC(=O)NCCc1cc2ccc(C)cc2[nH]c1=O [CBK287434] | 92.4%
17 | COc1ccc(C(=O)Nc2cc(C)c3c(=O)oc4ccccc4c3n2)cc1 [CBK287435] | 79.6%
18 | Cc1cc(NC(=O)C2CCCC2)nc2c1c(=O)oc1ccccc12 [CBK287438] | 93.2%
19 | Cc1cc(NC(=O)C(C)(C)C)nc2c1c(=O)oc1ccccc12 [CBK287443] | 78.7%
20 | O=C(NCc1ccc2c(c1)OCO2)c1cnc2sccn2c1=O [CBK287446] | 91%
21 | Cc1ccc(NC(=O)c2cnc3sccn3c2=O)cc1 [CBK287448] | 93.1%
22 | O=C(Nc1ccc(F)c(F)c1)c1cnc2sccn2c1=O [CBK287450] | 104%
23 | Cc1cccc(NC(=O)c2cnc3scc(C)n3c2=O)c1 [CBK287453] | 112%

Row | Structure (SMILES) | viability at 28.5 h, 10 µM
24 | Cc1csc2ncc(C(=O)Nc3ccccc3F)c(=O)n12 [CBK287455] | 113%
25 | Cc1csc2ncc(C(=O)Nc3ccccc3C(F)(F)F)c(=O)n12 [CBK287456] | 86.4%
26 | Cc1csc2ncc(C(=O)Nc3ccc(F)c(Cl)c3)c(=O)n12 [CBK287460] | 107%
27 | COc1ccc(OC)c(NC(=O)c2cnc3scc(C)n3c2=O)c1 [CBK287462] | 90.5%
28 | COc1cccc2sc(Nc3nc4c(s3)C(=O)CC(C)(C)C4)nc12 [CBK287467] | 86%
29 | COc1cccc2sc(Nc3nc(-c4cccs4)cs3)nc12 [CBK287469] | 82.8%
30 | COc1cccc2sc(Nc3nc(-c4cccnc4)cs3)nc12 [CBK287470] | 98.5%
31 | COc1cccc2sc(Nc3nc(C)c(C(C)=O)s3)nc12 [CBK287471] | 109%
32 | Fc1cccc2sc(Nc3nc(-c4cccs4)cs3)nc12 [CBK287476] | 85.9%
33 | CC1CCc2c(sc(Nc3nc4c(F)cccc4s3)c2C(N)=O)C1 (centres unmarked) [CBK287477] | 102%
34 | Fc1cccc2sc(Nc3nc(-c4ccccn4)cs3)nc12 [CBK287479] | 108%
35 | Fc1cccc2sc(Nc3nnc(-c4ccco4)o3)nc12 [CBK287480] | 82.6%
36 | COc1ccc2nc(Nc3nc4c(s3)C(=O)CC(C)(C)C4)sc2c1 [CBK287481] | 90.5%
37 | COc1ccc2nc(Nc3nc4ccc(S(C)(=O)=O)cc4s3)sc2c1 [CBK287484] | 102%
38 | Fc1ccc2nc(Nc3nnc(-c4ccco4)o3)sc2c1 [CBK287488] | 94.5%
39 | CC(=O)Nc1ccc2nc(Nc3nc4c(F)cc(F)cc4s3)sc2c1 [CBK287489] | 107%
40 | c1cncc(-c2csc(Nc3nc4cc5c(cc4s3)OCO5)n2)c1 [CBK287490] | 87.2%
41 | c1c2c(cc3sc(N4CCOCC4)nc13)OCO2 [CBK287494] | 97.7%
42 | c1ccc(N2CCN(c3nc4cc5c(cc4s3)OCO5)CC2)cc1 [CBK287495] | 108%
43 | c1c2c(cc3sc(N4CCCCC4)nc13)OCCO2 [CBK287497] | 89.3%
44 | c1ccc(N2CCN(c3nc4cc5c(cc4s3)OCCO5)CC2)cc1 [CBK287499] | 93.6%
45 | CCSc1nnc(Cc2cc(=O)[nH]c(=O)[nH]2)n1-c1ccc(F)cc1 [CBK287500] | 85.2%
46 | Cc1c(C(=O)Nc2ccccn2)sc2nc(-c3ccccc3)cn12 [CBK287501] | 98.3%

Row | Structure (SMILES) | viability at 28.5 h, 10 µM
47 | Cc1ccc(Cn2cnc3c(nnn3-c3ccc(C)cc3)c2=O)cc1 [CBK287502] | 102%
48 | Cc1ccc(C(=O)Nc2cccc(-c3cn4cccnc4n3)c2)cc1 [CBK287503] | 93.8%
49 | Cc1c(-c2cccc(NC(=O)c3ccccc3)c2)nc2ncccn12 [CBK287504] | 67.3%
50 | Cc1cc2cc(CCNC(=O)C(=O)c3c[nH]c4ccccc34)c(O)nc2cc1C [CBK287511] | 89.5%
51 | O=C(CSc1ccc2nnc(-c3ccccc3)n2n1)NCc1ccco1 [CBK287514] | 95.6%
52 | O=C(CSc1ccc2nnc(-c3ccccc3)n2n1)NCC1CCCO1 (centres unmarked) [CBK287515] | 96.6%
53 | Cc1csc(NC(=O)CSc2ccc3nnc(-c4ccccc4)n3n2)n1 [CBK287517] | 105%
54 | Cc1cc(NC(=O)CSc2ccc3nnc(-c4ccccc4)n3n2)no1 [CBK287518] | 94.8%
55 | O=C(CSc1ccc2nnc(-c3ccc(F)cc3)n2n1)N1CCCC1 [CBK287519] | 85.3%
56 | O=C(CSc1ccc2nnc(-c3ccc(F)cc3)n2n1)N1CCCCC1 [CBK287520] | 98.4%
57 | O=C(CSc1ccc2nnc(-c3ccc(F)cc3)n2n1)N1CCOCC1 [CBK287521] | 96.9%
58 | O=C(CSc1ccc2nnc(-c3cccc(F)c3)n2n1)Nc1nccs1 [CBK287522] | 85.8%
59 | CCC(Sc1ccc2nnc(-c3ccc(C)cc3)n2n1)C(=O)O (centres unmarked) [CBK287524] | 104%
60 | COc1ccc(-c2nnc3ccc(SC(C)C)nn23)cc1OC [CBK287526] | 101%
61 | COc1ccc(-c2nnc3ccc(SCC(=O)N4CCCC4)nn23)cc1OC [CBK287527] | 85.9%
62 | COc1ccc(-c2nnc3ccc(SCc4ccccn4)nn23)cc1OC [CBK287528] | 97.4%
63 | O=C(Cn1cnc2c(cnn2-c2ccccc2)c1=O)NCc1ccco1 [CBK287531] | 101%
64 | Cc1ccc(-n2ncc3c(=O)n(CC(=O)Nc4cccc(C)c4)cnc32)cc1 [CBK287533] | 103%
65 | Cc1ccc(-n2ncc3c(=O)n(CC(=O)Nc4ccc(C)cc4C)cnc32)cc1 [CBK287535] | 83.4%
66 | O=C(Cn1cnc2c(cnn2-c2ccc(F)cc2)c1=O)Nc1ccc(F)cc1F [CBK287537] | 89.3%
67 | O=C(Cn1cnc2c(cnn2-c2ccc(F)cc2)c1=O)NCc1ccccc1 [CBK287538] | 93.1%
68 | NC(=O)c1nc(-c2ccccc2)nc2c1[nH]c(=O)n2-c1cccc(Cl)c1 [CBK287544] | 104%
69 | NC(=O)c1nc(-c2ccco2)nc2c1[nH]c(=O)n2-c1ccc(Cl)cc1 [CBK287545] | 91.2%

Row | Structure (SMILES) | viability at 28.5 h, 10 µM
70 | COc1ccc(-n2c(=O)[nH]cc(C(=O)Nc3cc(C)ccc3OC)c2=O)cc1 [CBK287548] | 107%
71 | COc1ccc(OC)c(NC(=O)c2c[nH]c(=O)n(-c3ccc(F)cc3)c2=O)c1 [CBK287552] | 99%
72 | O=C(c1c[nH]c(=O)n(-c2ccc(F)cc2)c1=O)N1CCc2ccccc21 [CBK287554] | 101%
73 | COc1ccc(-n2c(=O)[nH]cc(C(=O)N3CCc4ccccc43)c2=O)cc1OC [CBK287555] | 105%
74 | Cc1nc2c(ccc3nc(NC(=O)c4ccccc4)sc32)s1 [CBK287560] | 91.7%
75 | O=C(Nc1nc(-c2ccncc2)cs1)c1sc2ccccc2c1Cl [CBK287562] | 92.1%
76 | COc1ccc(C(=O)Nc2nc(-c3nc4ccccc4s3)cs2)cc1 [CBK287563] | 102%
77 | O=C(Nc1nc(-c2cccnc2)cs1)c1cccc(N2C(=O)CCC2=O)c1 [CBK287564] | 108%
78 | CC1(C)CC(=O)c2sc(NC(=O)c3cccc(N4C(=O)CCC4=O)c3)nc2C1 [CBK287565] | 111%
79 | NC(=O)c1c(NC(=O)c2nc3ccccc3s2)sc2c1CCCCC2 [CBK287566] | 96.5%
80 | CSc1nc2ccc3nc(NC(C)=O)sc3c2s1 [CBK287567] | 106%
81 | CC(=O)Nc1ccccc1-c1nc2ccccc2o1 [CBK287568] | 100%
82 | O=C(Nc1nccs1)c1cc(=O)c2ccccc2o1 [CBK287570] | 105%
83 | COc1ccc2nc(NC(=O)c3ccc4c(c3)OCCO4)sc2c1 [CBK287572] | 103%
84 | Cc1cc(NC(=O)c2ccc(OC(C)C)cc2)no1 [CBK287575] | 94.4%
85 | Cc1cc(C)cc(NC(=O)CSc2ncccn2)c1 [CBK287577] | 97.8%
86 | COc1cc(C)ccc1S(=O)(=O)n1cnc2cc(C)c(C)cc21 [CBK287580] | 61.3%
87 | C=C(C)Cn1c(-c2ccc(N)cc2)nc2ccccc21 [CBK287581] | 89.2%
88 | N#Cc1c(NC(=O)c2cccnc2)sc2c1CCCCC2 [CBK287584] | 98.6%
89 | O=C(CC1Sc2ccccc2NC1=O)Nc1ccc(C(F)(F)F)cc1 (centres unmarked) [CBK287585] | 88.6%
90 | COc1ccc(C(=O)Nc2nc(-c3ccc4c(c3)OCCO4)cs2)cc1OC [CBK287588] | 92.5%
91 | COc1cccc(-c2nnc(NC(=O)c3ccc4c(c3)OCCO4)o2)c1 [CBK287591] | 108%
92 | CC(C)C(=O)Nc1nnc(-c2ccc(Cl)cc2)o1 [CBK287593] | 94%
